Results taken from patent US11696928B2, “Compounds and use thereof in the expansion of stem cells and/or progenitor cells” (UNIVERSITE DE MONTREAL, priority 2017, dated 2023).

Columns and labels:
AhR = molecular target: T1, AhR (Homo sapiens, UniProt P35869); assay: Inhibition of AhR-mediated gene transcription (HEK-XRE 11.1 luciferase reporter, MeBIO induction); assay type: cell-based; conditions: HEK-XRE 11.1 cells, MeBIO 0.1 nM, luminescence after 24 hours
T1 construct: One of the resultant clones was named HEK-XRE 11.1, and used in the reporter gene assays; endogenous in cells; host or cells: HEK-XRE 11.1 (HEK cells stably carrying the AhR-responsive luciferase reporter X4-4.27 and phRL-CMV)
T1 sequence (P35869 11-848): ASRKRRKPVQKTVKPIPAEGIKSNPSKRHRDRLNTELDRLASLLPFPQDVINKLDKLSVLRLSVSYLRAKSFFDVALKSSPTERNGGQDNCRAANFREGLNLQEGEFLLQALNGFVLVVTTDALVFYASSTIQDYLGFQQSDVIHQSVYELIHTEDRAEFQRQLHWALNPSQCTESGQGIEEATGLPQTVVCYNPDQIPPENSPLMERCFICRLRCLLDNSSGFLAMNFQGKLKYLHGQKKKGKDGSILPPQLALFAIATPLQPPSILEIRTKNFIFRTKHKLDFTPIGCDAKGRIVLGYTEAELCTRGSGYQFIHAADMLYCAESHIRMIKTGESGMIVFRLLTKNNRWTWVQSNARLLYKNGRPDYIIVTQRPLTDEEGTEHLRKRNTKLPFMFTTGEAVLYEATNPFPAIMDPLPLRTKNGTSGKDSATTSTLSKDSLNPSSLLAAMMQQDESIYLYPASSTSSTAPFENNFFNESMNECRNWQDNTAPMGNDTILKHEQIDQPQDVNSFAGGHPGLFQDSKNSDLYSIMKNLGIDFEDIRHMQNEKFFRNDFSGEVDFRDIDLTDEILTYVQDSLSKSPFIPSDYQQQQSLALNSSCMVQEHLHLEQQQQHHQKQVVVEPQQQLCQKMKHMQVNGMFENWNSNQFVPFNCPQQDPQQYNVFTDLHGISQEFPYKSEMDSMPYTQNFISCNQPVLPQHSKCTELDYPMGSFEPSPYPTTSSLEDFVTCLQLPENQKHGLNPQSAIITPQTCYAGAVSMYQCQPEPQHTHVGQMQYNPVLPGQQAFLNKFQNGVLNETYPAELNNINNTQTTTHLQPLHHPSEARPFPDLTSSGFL
Procedure: HEK cells line was transfected with an AhR-responsive firefly luciferase reporter gene X4-4.27 and the stable transfectants generated were again transfected with phRL-CMV (a Renilla luciferase expression vector; Promega) along with pBAsi-hU6 Pur DNA (a plasmid carrying the puromycin-resistant gene; TaKaRa, Shiga, Japan), and maintained in the presence of both hygromycin B and puromycin (2 mg/mL). One of the resultant clones was named HEK-XRE 11.1, and used in the reporter gene assays.
HEK-XRE 11.1 cells were plated in 384-well plates at a density of 25,000 cells in 50 uL volume per well. The induction of ARh pathway was done by addition of MeBIO at 0.1 nM concentration. ARh antagonist compounds were then added to seeded cells in serial dilutions (8 dilutions, 1:[…] down to 5 nM) in duplicate wells. Renilla expression was not used as internal control. On each plate, Compound 1001 and SR1 were added as dose control (8 dilutions, 1:3, 5 mM down to 2.5 nM for SR1 and 2 mM down to 1 nM for compound 1001). Luminescence activity was evaluated after 24 hours culture using Lumi-384-CellTiterGlo-Corning protocol. Dose-response curves were generated using nonlinear regression in Excel.

[1] = test system: Human CD34+ cord blood (CB) cells; assay: CD34+ activity assessment (7-day expansion of pre-expanded CD34+ cells, flow cytometry); assay type: cell-based; conditions: concentration at which compound/vehicle ratio of CD34+ cell number is >= 1.5; 7 days, with 35 nM UM0128171; Table 1
Procedure: Human CD34+ cord blood (CB) cells were isolated from fresh units using RosetteSep™ 0034 pre-enrichment cocktail followed by CD34 positive selection using EasySep Kit™ (StemCell Technologies). The cells were then pre-expanded in bulk, by culturing at 37° C. for 6 days in HSC expansion media consisting of StemSpan ACF (StemCell Technologies) supplemented with 100 ng/mL Stem Cell Factor (SCF, Shenandoah), 100 ng/mL FMS-like Tyrosine Kinase 3 Ligand (FLT3L, Shenandoah), 50 ng/mL Thrombopoietin (TPO, Shenandoah), 2 mM GlutaMAX™ (Invitrogen), 10 μg/mL low density lipoproteins (LDL, StemCell Technologies), 10 μg/mL Ciprofloxacin and 35 nM UM0128171. […] Following the pre-expansion, cells were harvested, aliquoted and frozen until use.
For each activity assessment, CD34+ pre-expanded cells (approximately 2000 per well in a 384-well plate) were cultured in HSC expansion media, in the presence of 35 nM UM0128171. Compounds were serially diluted (1/2) in DMSO (10 dilutions per compound) and added to the cells in order to achieve a 1/1000 final dilution. StemRegenin1 (SR1) and/or Compound 1001 were included in all experiments as controls to monitor assay performance. The plate was incubated at 37° C. for 7 days in static conditions (i.e. no shaking and no addition of media). Flow cytometry analysis was performed at the end of the 7-day expansion. Cells were stained with PE-labeled anti-human CD45RA (BD Biosciences) and APC-labeled anti-human CD34 (BD Biosciences) and analyzed using Intellicyt IQue cytometer equipped with ForeCyt software. Gates were drawn around the populations of interest to obtain cell numbers and relative proportions. The EC1.5 value, which is the concentration at which the compound/vehicle ratio is greater or equal to 1.5, was calculated by plotting the CD34+ cell number against concentrations (log-scale) in a 4-PL curve and fitting the curve using IDBS XLfit (set model 251) in Microsoft Excel.

## Nc1c(C(=O)Nc2ccc(F)cc2)sc2nc3c(cc12)CCC3 [Compound 1002]
AhR; Table 1
  IC50: < 0.05 µM

## Nc1c(C(=O)Nc2ccccc2)sc2ncc(Br)cc12 [Compound 1003]
AhR; Table 1
  IC50: < 0.05 µM

## Nc1c(C(=O)Nc2ccccc2)sc2ncc(Cl)cc12 [Compound 1004]
AhR; Table 1
  IC50: < 0.05 µM
[1]
  EC1.5: 100 to 1000 nM

## Cc1cc2c(N)c(C(=O)Nc3ccccc3)sc2nc1C [Compound 1005]
AhR; Table 1
  IC50: 0.05 to 0.5 µM
[1]
  EC1.5: 100 to 1000 nM

## Nc1c(C(=O)Nc2cccnc2)sc2nc3c(cc12)CCC3 [Compound 1006]
AhR; Table 1
  IC50: 0.05 to 0.5 µM
[1]
  EC1.5: 1000 to 5000 nM

## Nc1c(C(=O)Nc2ccccn2)sc2nc3c(cc12)CCC3 [Compound 1007]
AhR; Table 1
  IC50: < 0.05 µM
[1]
  EC1.5: 100 to 1000 nM

## Nc1c(C(=O)Nc2ccccc2)sc2ncc(C(F)(F)F)cc12 [Compound 1008]
AhR; Table 1
  IC50: > 0.5 µM
[1]
  EC1.5: 100 to 1000 nM

## Cc1cnc2sc(C(=O)Nc3ccccc3)c(N)c2c1 [Compound 1009]
AhR; Table 1
  IC50: < 0.05 µM

## Nc1c(C(=O)Nc2ccccc2)sc2ncc(F)cc12 [Compound 1010]
AhR; Table 1
  IC50: 0.05 to 0.5 µM
[1]
  EC1.5: >5000 nM

## Nc1c(C(=O)Nc2ccncc2)sc2ncc(Cl)cc12 [Compound 1011]
AhR; Table 1
  IC50: < 0.05 µM
[1]
  EC1.5: 1000 to 5000 nM

## Nc1c(C(=O)Nc2ccncc2)sc2ncc(Br)cc12 [Compound 1012]
AhR; Table 1
  IC50: 0.05 to 0.5 µM

## Nc1c(C(=O)Nc2ccncc2)sc2ncc(C(F)(F)F)cc12 [Compound 1013]
AhR; Table 1
  IC50: > 0.5 µM
[1]
  EC1.5: 100 to 1000 nM

## Nc1c(C(=O)Nc2ccncc2)sc2nc3c(cc12)CCC3 [Compound 1014]
AhR; Table 1
  IC50: 0.05 to 0.5 µM
[1]
  EC1.5: 1000 to 5000 nM

## Nc1c(C(=O)Nc2cccnc2)sc2ncc(C(F)(F)F)cc12 [Compound 1015]
AhR; Table 1
  IC50: > 0.5 µM
[1]
  EC1.5: 100 to 1000 nM

## N#Cc1cnc2sc(C(=O)Nc3ccccc3)c(N)c2c1 [Compound 1016]
AhR; Table 1
  IC50: > 0.5 µM
[1]
  EC1.5: 100 to 1000 nM

## Nc1c(C(=O)Nc2ccc(CCO)cc2)sc2ncc(C(F)(F)F)cc12 [Compound 1017]
AhR; Table 1
  IC50: 0.05 to 0.5 µM
[1]
  EC1.5: 100 to 1000 nM

## COCc1ccc(NC(=O)c2sc3ncc(C(F)(F)F)cc3c2N)cc1 [Compound 1018]
AhR; Table 1
  IC50: < 0.05 µM
[1]
  EC1.5: 1000 to 5000 nM

## Nc1c(C(=O)Nc2ccc(CO)cc2)sc2ncc(C(F)(F)F)cc12 [Compound 1019]
AhR; Table 1
  IC50: > 0.5 µM
[1]
  EC1.5: >5000 nM

## C#Cc1cnc2sc(C(=O)Nc3ccncc3)c(N)c2c1 [Compound 1020]
AhR; Table 1
  IC50: 0.05 to 0.5 µM

## CCc1cnc2sc(C(=O)Nc3ccncc3)c(N)c2c1 [Compound 1021]
AhR; Table 1
  IC50: 0.05 to 0.5 µM

## Nc1c(C(=O)Nc2ccccn2)sc2ncc(C(F)(F)F)cc12 [Compound 1022]
AhR; Table 1
  IC50: < 0.05 µM
[1]
  EC1.5: 100 to 1000 nM

## Cc1cnc(NC(=O)c2sc3ncc(C(F)(F)F)cc3c2N)s1 [Compound 1023]
AhR; Table 1
  IC50: 0.05 to 0.5 µM
[1]
  EC1.5: >5000 nM

## CCc1ccc(NC(=O)c2sc3ncc(C(F)(F)F)cc3c2N)cc1 [Compound 1024]
AhR; Table 1
  IC50: < 0.05 µM
[1]
  EC1.5: 100 to 1000 nM

## Nc1c(C(=O)Nc2ccccc2)sc2cnc(C(F)(F)F)cc12 [Compound 1025]
AhR; Table 1
  IC50: < 0.05 µM
[1]
  EC1.5: 100 to 1000 nM

## Nc1c(C(=O)Nc2ccncc2)sc2cnc(C(F)(F)F)cc12 [Compound 1026]
AhR; Table 1
  IC50: 0.05 to 0.5 µM
[1]
  EC1.5: 1000 to 5000 nM

## Nc1c(C(=O)Nc2ccccc2)sc2ccc(C(F)(F)F)nc12 [Compound 1027]
AhR; Table 1
  IC50: < 0.05 µM
[1]
  EC1.5: >5000 nM

## Nc1c(C(=O)Nc2ccncc2)sc2ccc(C(F)(F)F)nc12 [Compound 1028]
AhR; Table 1
  IC50: 0.05 to 0.5 µM
[1]
  EC1.5: >5000 nM

## Nc1c(C(=O)Nc2ccc3ncsc3c2)sc2ncc(C(F)(F)F)cc12 [Compound 1029]
AhR; Table 1
  IC50: 0.05 to 0.5 µM
[1]
  EC1.5: 100 to 1000 nM

## Nc1c(C(=O)Nc2ccc(-c3ccccc3)cc2)sc2ncc(C(F)(F)F)cc12 [Compound 1030]
AhR; Table 1
  IC50: 0.05 to 0.5 µM
[1]
  EC1.5: >5000 nM

## Nc1c(C(=O)Nc2ccc(OCc3ccccc3)cc2)sc2ncc(C(F)(F)F)cc12 [Compound 1031]
AhR; Table 1
  IC50: 0.05 to 0.5 µM
[1]
  EC1.5: 100 to 1000 nM

## CCOC(=O)Cc1ccc(NC(=O)c2sc3ncc(C(F)(F)F)cc3c2N)cc1 [Compound 1032]
AhR; Table 1
  IC50: 0.05 to 0.5 µM
[1]
  EC1.5: 1000 to 5000 nM

## COc1ccc(NC(=O)c2sc3ncc(C(F)(F)F)cc3c2N)cc1-c1ccccc1 [Compound 1033]
AhR; Table 1
  IC50: 0.05 to 0.5 µM
[1]
  EC1.5: 100 to 1000 nM

## Nc1c(C(=O)Nc2ccccc2)sc2ccc(C(F)(F)F)cc12 [Compound 1034]
AhR; Table 1
  IC50: < 0.05 µM
[1]
  EC1.5: 100 to 1000 nM

## Nc1c(C(=O)Nc2ccncc2)sc2ccc(C(F)(F)F)cc12 [Compound 1035]
AhR; Table 1
  IC50: < 0.05 µM
[1]
  EC1.5: 100 to 1000 nM

## Nc1c(C(=O)Nc2cccc(Br)c2)sc2ncc(C(F)(F)F)cc12 [Compound 1036]
AhR; Table 1
  IC50: < 0.05 µM
[1]
  EC1.5: 100 to 1000 nM

## Nc1c(C(=O)Nc2ccc(Br)cc2)sc2ncc(C(F)(F)F)cc12 [Compound 1037]
AhR; Table 1
  IC50: < 0.05 µM

## N#CCc1ccc(NC(=O)c2sc3ncc(C(F)(F)F)cc3c2N)cc1 [Compound 1038]
AhR; Table 1
  IC50: < 0.05 µM
[1]
  EC1.5: >5000 nM

## Nc1c(C(=O)Nc2ccc(Br)cc2)sc2cnc(C(F)(F)F)cc12 [Compound 1049]
AhR; Table 1
  IC50: 0.05 to 0.5 µM

## Nc1c(C(=O)Nc2ccc(-c3cccnc3)cc2)sc2ncc(C(F)(F)F)cc12 [Compound 1055]
AhR; Table 1
  IC50: 0.05 to 0.5 µM

## Nc1c(C(=O)Nc2ccc(F)cc2)sc2ncc(C(F)(F)F)cc12 [Compound 1060]
AhR; Table 1
  IC50: < 0.05 µM

## C=C(C)c1cnc2sc(C(=O)Nc3ccccc3)c(N)c2c1 [Compound 1090]
AhR; Table 1
  IC50: < 0.05 µM

## CC(C)c1cnc2sc(C(=O)Nc3ccccc3)c(N)c2c1 [Compound 1103]
AhR; Table 1
  IC50: < 0.05 µM

## C=CCc1cnc2sc(C(=O)Nc3ccccc3)c(N)c2c1 [Compound 1111]
AhR; Table 1
  IC50: 0.05 to 0.5 µM

## CCc1cnc2sc(C(=O)Nc3ccccc3)c(N)c2c1 [Compound 1112]
AhR; Table 1
  IC50: 0.05 to 0.5 µM

## Cc1ccc2sc(C(=O)Nc3ccccc3)c(N)c2c1 [Compound 1118]
AhR; Table 1
  IC50: < 0.05 µM

## Nc1c(C(=O)Nc2ccc(F)cn2)sc2ncc(C(F)(F)F)cc12 [Compound 1128]
[1]
  EC1.5: 100 to 1000 nM

## CSc1ccc(NC(=O)c2sc3ncc(C(F)(F)F)cc3c2N)cc1 [Compound 1133]
AhR; Table 1
  IC50: < 0.05 µM

## CCCc1cnc2sc(C(=O)Nc3ccccc3)c(N)c2c1 [Compound 1134]
AhR; Table 1
  IC50: < 0.05 µM

## Nc1c(C(=O)Nc2ccccc2)oc2nc3c(cc12)CCC3 [Compound 1153]
AhR; Table 2
  IC50: 0.05 to 0.5 µM
